This passage reports Ki results from patent US9890152B2 (Genentech, Inc., priority 2012, dated 2018).

Each structure is given as a SMILES string. “And” between values parts separate entries of the source, which are not always exact repeats. Identical values can stand only once. Counter-ions that a name gives are not always drawn.

For the test, the target named is T1, EGFR del746-750 T790M (Homo sapiens, UniProt P00533, DEL746-750/T790M).
T1 construct: purchased Carna Biosciences 08-528
T1 sequence (P00533 with tags, fused parts or gaps DEL746-750/T790M limits assumed): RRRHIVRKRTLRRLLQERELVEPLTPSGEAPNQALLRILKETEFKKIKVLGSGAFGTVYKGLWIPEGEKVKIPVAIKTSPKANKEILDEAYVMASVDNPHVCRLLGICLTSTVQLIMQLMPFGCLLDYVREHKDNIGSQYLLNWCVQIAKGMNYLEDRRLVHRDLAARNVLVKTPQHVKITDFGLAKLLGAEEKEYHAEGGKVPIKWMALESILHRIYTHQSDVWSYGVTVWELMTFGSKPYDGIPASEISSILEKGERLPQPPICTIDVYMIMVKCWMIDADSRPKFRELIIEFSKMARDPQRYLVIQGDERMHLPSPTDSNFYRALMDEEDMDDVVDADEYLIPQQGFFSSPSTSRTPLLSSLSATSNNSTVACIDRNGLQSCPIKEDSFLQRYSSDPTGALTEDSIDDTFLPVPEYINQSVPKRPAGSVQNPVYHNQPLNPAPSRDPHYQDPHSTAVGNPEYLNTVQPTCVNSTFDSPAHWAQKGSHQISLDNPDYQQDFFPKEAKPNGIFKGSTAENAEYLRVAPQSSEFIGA
Put plainly: EGFR del746-750 T790M biochemical assay (Caliper mobility shift). The settings on record: 5 μM ATP, 30 min, room temperature; apparent Ki (Morrison) converted by Cheng-Prusoff, Km of ATP 2.1 μM; read-out: EGFR(T790M/d746-750) Ki.
As for `CC(C)n1c(CO)nc2cnc(Nc3ccnc(N4CCC(C)(O)CC4)n3)cc21` [Example 418, 1-(4-((2-(hydroxymethyl)-1-isopropyl-1H-imidazo[4,5-c]pyridin-6-yl)amino)pyrimidin-2-yl)-4-methylpiperidin-4-ol], the Ki stood at 169 nM. Consider `CO[C@H]1CCN(c2nccc(Nc3cc4c(cn3)nc(C)n4C(C)C)n2)C[C@H]1F` (racemic) [Example 607, [2-((3RS,4SR)-3-Fluoro-4-methoxypiperidin-1-yl)pyrimidin-4-yl]-(1-isopropyl-2-methyl-1H-imidazo[4,5-c]pyridin-6-yl)amine], for which the Ki amounted to 41.1 nM.

With `COC1CCN(c2nccc(Nc3cc4c(cn3)nc(C)n4Cc3ccccc3)n2)CC1` [Example 356, 1-Benzyl-N-[2-(4-methoxy-1-piperidyl)pyrimidin-4-yl]-2-methyl-imidazo[4,5-c]pyridin-6-amine], the Ki is 562 nM. Turning to `CCC(C)n1cc(C(=O)NC2CCOCC2)c2cnc(Nc3ccnc(N4C[C@@H](F)[C@@H](O)C(C)(C)C4)n3)cc21` (mixture of isomers) [Example 646, 1-sec-Butyl-6-(2-((±)-cis-5-fluoro-4-hydroxy-3,3-dimethylpiperidin-1-yl)pyrimidin-4-ylamino)-N-(tetrahydro-2H-pyran-4-yl)-1H-pyrrolo[3,2-c]pyridine-3-carboxamide], the Ki came out at 3.72 nM. Regarding `CC(C)n1c(CO)nc2cnc(Nc3ccnc(N4CC[C@@H](O)[C@H](C(F)(F)F)C4)n3)cc21` (racemic) [Example 627, (±)-(trans)-1-(4-(2-(Hydroxymethyl)-1-isopropyl-1H-imidazo[4,5-c]pyridin-6-ylamino)pyrimidin-2-yl)-3-(trifluoromethyl)piperidin-4-ol], the Ki came to 1570 nM. With `Cc1nc2cnc(Nc3ccnc(-c4cnn(S(=O)(=O)C(C)C)c4)n3)cc2n1C(C)C` [Example 409, 1-isopropyl-N-(2-(1-(isopropylsulfonyl)-1H-pyrazol-4-yl)pyrimidin-4-yl)-2-methyl-1H-imidazo[4,5-c]pyridin-6-amine], the Ki is 1.97 nM. `CO[C@@H]1CCN(c2nccc(Nc3cc4c(cn3)nc(CO)n4C(C)C)n2)C[C@@H]1C` (racemic) [Example 632, (1-Isopropyl-6-(2-((±)-(cis)-4-methoxy-3-methylpiperidin-1-yl)pyrimidin-4-ylamino)-1H-imidazo[4,5-c]pyridin-2-yl)methanol]: the Ki was found to be 326 nM. With `Cc1nc2cnc(Nc3ccnc(N4CCCC(F)C4)n3)cc2n1C(C)C` (stereo not drawn) [Example 590, [2-(3-Fluoropiperidin-1-yl)pyrimidin-4-yl]-(1-isopropyl-2-methyl-1H-imidazo[4,5-c]pyridin-6-yl)amine], the Ki stood at 93.5 nM. Take `COC1CCN(c2nccc(Nc3cc4c(cn3)nc(CN(C)C)n4C(C)C)n2)CC1` [Example 9, (2-Dimethylaminomethyl-1-isopropyl-1H-imidazo[4,5-c]pyridin-6-yl)-[2-(4-methoxypiperidin-1-yl)pyrimidin-4-yl]amine formate salt]: the Ki was 417 nM.

As to `CC(C)n1c(CO)nc2cnc(Nc3ccnc(N4CC5CC4C5)n3)cc21` [Example 692], the Ki was found to be 140 nM. Turning to `Cc1nc2cnc(Nc3ccnc(N4CC[C@H](O)C[C@@H]4C)n3)cc2n1C(C)C` [Example 600], the Ki came out at 75.8 nM. As to `Cc1nc2cnc(Nc3ccnc(N4CCC(C)(O)CC4)n3)cc2n1C(C)C` [Example 682], the Ki is 135 nM. With `CCC(C)n1cc(C(=O)NC2CCOCC2)c2cnc(Nc3ccnc(N4CC[C@@H](OC)[C@@H](F)C4)n3)cc21` (single isomer, unassigned) [Example 375] the figure was 3.41 nM; with `CC(C)n1c(CO)nc2cnc(Nc3ccnc(N4C[C@@H](F)[C@@H](O)C(C)(C)C4)n3)cc21` [Example 650], 92 nM and 20 nM. On to `CCc1ncc(-c2nccc(Nc3cc4c(cn3)nc(C)n4C(C)C)n2)s1` [Example 595, [2-(2-Ethylthiazol-5-yl)pyrimidin-4-yl]-(1-isopropyl-2-methyl-1H-imidazo[4,5-c]pyridin-6-yl)amine], for which the Ki is 9.62 nM.

In the case of `CCC(C)n1cc(C(=O)NC2CCN(C3COC3)CC2)c2cnc(Nc3ccnc(N4CC[C@H](O)[C@H](F)C4)n3)cc21` (mixture of isomers) [Example 389, 1-(sec-butyl)-6-((2-((3R,4S)-3-fluoro-4-hydroxypiperidin-1-yl)pyrimidin-4-yl)amino)-N-(1-(oxetan-3-yl)piperidin-4-yl)-1H-pyrrolo[3,2-c]pyridine-3-carboxamide], the Ki came to 4.03 nM. For the compound `COC1CCN(c2nccc(Nc3cc4c(cn3)c(-c3ccn(CC(N)=O)n3)cn4C(C)C)n2)CC1` [Example 411, 2-(3-(1-isopropyl-6-((2-(4-methoxypiperidin-1-yl)pyrimidin-4-yl)amino)-1H-pyrrolo[3,2-c]pyridin-3-yl)-1H-pyrazol-1-yl) acetamide], the Ki came to 3.13 nM. `CC(C)n1cnc2cnc(Nc3ccnc(N4CC5CC4CC5F)n3)cc21` (stereo not drawn) [Example 191]: the Ki came out at 54.7 nM. For the compound `Cc1nc2cnc(Nc3ccnc(-c4cnn(S(=O)(=O)N(C)C)c4)n3)cc2n1C(C)C` [Example 397, 4-(4-((1-isopropyl-2-methyl-1H-imidazo[4,5-c]pyridin-6-yl)amino)pyrimidin-2-yl)-N,N-dimethyl-1H-pyrazole-1-sulfonamide], the Ki is 14.5 nM. With `COC1CCN(c2nccc(Nc3cc4c(cn3)c(C(=O)NC3CCN(C)CC3)cn4C(C)C)n2)CC1` [Example 114, 1-isopropyl-6-((2-(4-methoxypiperidin-1-yl)pyrimidin-4-yl)amino)-N-(1-methylpiperidin-4-yl)-1H-pyrrolo[3,2-c]pyridine-3-carboxamide] the figure was 2.1 nM; with `CCS(=O)(=O)n1cc(-c2nccc(Nc3cc4c(cn3)c(C(=O)NC3COC3)cn4C(C)C)n2)cn1` [Example 448, 6-(2-(1-(ethylsulfonyl)-1H-pyrazol-4-yl)pyrimidin-4-ylamino)-1-isopropyl-N-(oxetan-3-yl)-1H-pyrrolo[3,2-c]pyridine-3-carboxamide], 0.62 nM; with `CC[C@@H](C)n1cc(C(=O)NC2CCOCC2)c2cnc(Nc3ccnc(N4CC[C@H](OC)[C@H](F)C4)n3)cc21` (single isomer, unassigned) [Example 339], 4.12 nM. Next, `CC(C)n1c(CO)nc2cnc(Nc3ccnc(-c4cnc(N)s4)n3)cc21` [Example 615, {6-[2-(2-Aminothiazol-5-yl)pyrimidin-4-ylamino]-1-isopropyl-1H-imidazo[4,5-c]pyridin-2-yl}methanol]: 3.38 nM.

Regarding `CO[C@H]1CCN(c2nccc(Nc3cc4c(cn3)nc(CO)n4C(C)C)n2)C[C@H]1F` (racemic) [Example 526, (±)-{6-[2-((cis)-3-Fluoro-4-methoxypiperidin-1-yl)pyrimidin-4-ylamino]-1-isopropyl-1H-imidazo[4,5-c]pyridin-2-yl}methanol], the Ki amounted to 50.5 nM. For `CC(n1cc(C(=O)NC2CCOCC2)c2cnc(Nc3ccnc(N4CC[C@@H](O)[C@@H](F)C4)n3)cc21)C(F)(F)F` (single isomer, unassigned) [Example 639], the Ki worked out at 15 nM. On to `CO[C@H]1CN(c2nccc(Nc3cc4c(cn3)nc(C)n4C(C)C)n2)CC[C@@H]1O` (racemic) [Example 509, (±)-1-(4-((1-Isopropyl-2-methyl-1H-imidazo[4,5-c]pyridin-6-yl)amino)pyrimidin-2-yl)-3-methoxypiperidin-4-ol], for which the Ki was 348 nM. For the compound `Cc1nc2cnc(Nc3ccnc(N4CCC(F)CC4)n3)cc2n1C(C)C` [Example 591, [2-(4-Fluoropiperidin-1-yl)pyrimidin-4-yl]-(1-isopropyl-2-methyl-1H-imidazo[4,5-c]pyridin-6-yl)amine], the Ki worked out at 55 nM. For the compound `CC(C)n1c(CO)nc2cnc(Nc3ccnc(N4CCCCC4CO)n3)cc21` (stereo not drawn) [Example 670], the Ki is 273 nM. With `CCC(C)n1cc(C(=O)NC2CCC(O)CC2)c2cnc(Nc3ccnc(-c4cnn(S(=O)(=O)C5CC5)c4)n3)cc21` (stereo not drawn) [Example 705], the Ki was determined as 2.37 nM.

On to `CC(C)n1c([C@H](C)O)nc2cnc(Nc3ccnc(-c4cnn(S(=O)(=O)C5CC5)c4)n3)cc21` [Example 562, (S)-1-{6-[2-(1-Cyclopropanesulfonyl-1H-pyrazol-4-yl)pyrimidin-4-ylamino]-1-isopropyl-1H-imidazo[4,5-c]pyridin-2-yl}ethanol], for which the Ki amounted to 14 nM. Turning to `CO[C@H]1CCN(c2nccc(Nc3cc4c(cn3)nc(CO)n4C(C)C)n2)C[C@@H]1F` (racemic) [Example 527, (±)-{6-[2-((trans)-3-Fluoro-4-methoxypiperidin-1-yl)pyrimidin-4-ylamino]-1-isopropyl-1H-imidazo[4,5-c]pyridin-2-yl}methanol], the Ki is 239 nM. As for `CCCC(C)n1c(CO)nc2cnc(Nc3ccnc(-c4cnn(S(=O)(=O)C5CC5)c4)n3)cc21` (stereo not drawn) [Example 265, (6-(2-(1-(Cyclopropylsulfonyl)-1H-pyrazol-4-yl)pyrimidin-4-ylamino)-1-(pentan-2-yl)-1H-imidazo[4,5-c]pyridin-2-yl)methanol], the Ki amounted to 5.63 nM.

Regarding `CC(C)n1c(CO)nc2cnc(Nc3ccnc(N4CC[C@H](O)[C@H](C)C4)n3)cc21` (racemic) [Example 631, (±)-(cis)-1-(4-(2-(Hydroxymethyl)-1-isopropyl-1H-imidazo[4,5-c]pyridin-6-ylamino)pyrimidin-2-yl)-3-methylpiperidin-4-ol], the Ki is 351 nM.

For the compound `Cc1nc2cnc(Nc3ccnc(N4CC[C@@H](C#N)C4)n3)cc2n1C(C)C` [Example 678], the Ki came to 200 nM. Next, `CC(C)CC(C)n1c(CO)nc2cnc(Nc3ccnc(-c4cnn(S(=O)(=O)C5CC5)c4)n3)cc21` (stereo not drawn) [Example 478, (6-(2-(1-(cyclopropylsulfonyl)-1H-pyrazol-4-yl)pyrimidin-4-ylamino)-1-(4-methylpentan-2-yl)-1H-imidazo[4,5-c]pyridin-2-yl)methanol]: 32.4 nM; `C[C@H](n1c([C@@H](C)O)nc2cnc(Nc3ccnc(N4CCC(C)(O)CC4)n3)cc21)C(F)(F)F` [Example 683]: 13.2 nM.
